Assay results reported in PubChem BioAssay (NCI).
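96-well plates; 48 h exposure; 5 concentrations. Endpoints by linear interpolation between flanking doses. Not reached: highest tested concentration assigned. The concentration for full growth arrest is given as TGI.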

Tests used:
Assay in all cases: inhibition of tumour cell growth, NCI panel, 48 h
A498 renal = system: A498 renal
ACHN renal = system: ACHN renal
CCRF-CEM leukemia = system: CCRF-CEM leukemia
HT29 colon = system: HT29 colon
IGROV1 ovarian = system: IGROV1 ovarian
NCI-H226 lung = system: NCI-H226 lung
OVCAR-4 ovarian = system: OVCAR-4 ovarian
SF-295 CNS = system: SF-295 CNS
SF-539 CNS = system: SF-539 CNS
SK-MEL-2 melanoma = system: SK-MEL-2 melanoma
SK-MEL-28 melanoma = system: SK-MEL-28 melanoma
SK-MEL-5 melanoma = system: SK-MEL-5 melanoma
SK-OV-3 ovarian = system: SK-OV-3 ovarian
SNB-19 CNS = system: SNB-19 CNS
SR leukemia = system: SR leukemia
SW-620 colon = system: SW-620 colon
TK-10 renal = system: TK-10 renal
HOP-18 NSCLC = system: HOP-18 NSCLC
M19-MEL melanoma = system: M19-MEL melanoma
SNB-78 CNS = system: SNB-78 CNS

Row | Compound | TGI (A498 renal) [µM] | TGI (ACHN renal) [µM] | TGI (CCRF-CEM leukemia) [µM] | TGI (HT29 colon) [µM] | TGI (IGROV1 ovarian) [µM] | TGI (NCI-H226 lung) [µM] | TGI (OVCAR-4 ovarian) [µM] | TGI (SF-295 CNS) [µM] | TGI (SF-539 CNS) [µM] | TGI (SK-MEL-2 melanoma) [µM] | TGI (SK-MEL-28 melanoma) [µM] | TGI (SK-MEL-5 melanoma) [µM] | TGI (SK-OV-3 ovarian) [µM] | TGI (SNB-19 CNS) [µM] | TGI (SR leukemia) [µM] | TGI (SW-620 colon) [µM] | TGI (TK-10 renal) [µM] | TGI (HOP-18 NSCLC) [µM] | TGI (M19-MEL melanoma) [µM] | TGI (SNB-78 CNS) [µM]
1 | Cc1cc(S(N)(=O)=O)c(S/C(=N\Nc2ccc([N+](=O)[O-])cc2)c2ccc(Cl)cc2)cc1Cl | 21.8 | 10.4 | > 100 | 4.36 | 12.8 | 6.57 | 4.48 | 5.46 | 4.19 | 9.58 | 4.91 | 33.3 | 3.93 | 27 | 9.01 | > 100 | 3.54 | – | – | –
2 | COc1cccc(NC(=O)N/C(=C/c2ccc(N(CCC#N)CCC#N)cc2)NC(=O)c2cc([N+](=O)[O-])ccc2Cl)c1 | – | > 100 | > 100 | – | > 100 | > 100 | > 100 | > 100 | > 100 | > 100 | > 100 | > 100 | > 100 | > 100 | > 100 | – | > 100 | > 100 | > 100 | > 100
3 | O=S(=O)(O)c1ccc(N=Nc2ccc(N=Nc3ccc(/C=C/c4ccc(N=[N+]([O-])c5ccc(/C=C/c6ccc(N=Nc7ccc(N=Nc8ccc(S(=O)(=O)O)cc8)c8ccccc78)cc6S(=O)(=O)O)c(S(=O)(=O)O)c5)cc4S(=O)(=O)O)c(S(=O)(=O)O)c3)c3ccccc23)cc1 | > 100 | – | > 100 | > 100 | > 100 | > 100 | > 100 | > 100 | > 100 | > 100 | > 100 | > 100 | > 100 | – | – | > 100 | – | > 100 | > 100 | > 100
